Read-outs that look alike come from different tables or passages of the source.
How the values were obtained:
[1] = Solubility assay (thermodynamic solubility); format: physicochemical; settings: thermodynamic from solid, aqueous buffer, mean
Method: Solubility of solid compound in aqueous buffer was determined by an equilibrium shake flask method. A saturated solution of drug in solvent (˜2 mg/ml solvent) was prepared and the solution was mixed for 24 h to ensure that equilibrium has been reached. The solution was centrifuged to remove the insoluble fraction and the concentration of the compound in solution was determined by HPLC-UV using a standard calibration curve (Kerns, E. H. et al., Solubility Methods in: Drug-like Properties: Concepts, Structure Design and Methods, p 276-286. Burlington, MA: Academic Press 2008).

HT-29 cells = assay: HT29 cell proliferation assay, CTG method; format: cell-based; settings: Homo sapiens; HT-29, CTG, 96 h; median; read-out: 2D-PROLI HT-29 CTG 96 h, IC50 - [mol/l] (median)
Method: CELL PROLIFERATION ASSAY CTG METHOD, 384-well version: Day 1: plated 400 cells/30 μL/well in growth medium (DMEM/Ham's F12; (Biochrom; #FG 4815, mit stabilem Glutamin)+FCS (final: 10%); (Biochrom; #S 0415)) in 384-well black plates (Corning #3571). Plated sister wells in a separate plate for time zero determination. Incubated all plates overnight at 37° C. Day 2: added test compounds in serial dilutions using the HP D300 Digital Dispenser and incubated at 37° C. for 96 h. Measured time zero plate: add 30 μL/well CTG solution (Promega CellTiter-Glo solution (catalog #G7573)) to wells in time zero plate; incubated for 2 minutes in a orbital shaker to induce cell lysis; allowed the plate to incubate at room temperature for additional 10 min to stabilize luminescent signal and read luminescence on PheraStar (rapid mode—0.02 sec/well; GAIN 3000). Day 6: Added 30 μL/well CTG solution to all test wells, incubated for 2 minutes in a orbital shaker to induce cell lysis; allowed the plate to incubate at room temperature for additional 10 min to stabilize luminescent signal and read luminescence on PheraStar (rapid mode—0.02 sec/well; GAIN 3000 Proliferation IC50s were calculated using the DRC application in ShiNy Analysis Platform-SNAP.”

HCT 116 cells = assay: HCT 116 cell proliferation assay, CTG; format: cell-based; settings: Homo sapiens; HCT 116, CTG, 96 h; median; read-out: 2D-PROLI HCT 116 CTG 96 h, IC50 - [mol/l] (median)
Method: 400 HCT 116 cells/30 μL/well were plated in growth medium (DMEM/Ham's F12, 10% FCS) in a 384-well plate (CORNING #3571) at day 1. Reference plate was seeded for time zero determination. All plates were incubated overnight 37° C. Day 2: test compound was added in 7-step dilution and incubate at 37° C. for 96 h. Day 2: time zero plate: 30 μL/well CTG solution (Promega Cell Titer Glo solution; catalog #G755B and G756B) were added, incubated for 30 minutes, read luminescence on PheraStar. Day 6: compound treated plates: 30 μL/well CTG solution (Promega Cell Titer Glo solution; catalog #G755B and G756B) were added, incubated for 30 minutes, luminescence was read on PheraStar. Proliferation was calculated after subtracting time zero luminescence values from day 6 values and comparing to untreated wells. The IC50 values were determined using the four parameter fit.

human CSNK1A1 = human CSNK1A1 (Homo sapiens (Human), UniProt P48729); assay: CSNK1A1 high ATP assay (ADP-Glo, 1 mM ATP); format: biochemical; settings: median, read-out: CSNK1A1 High ATP assay IC50 [mol/l] (median)
Chain of human CSNK1A1 (P48729 whole entry): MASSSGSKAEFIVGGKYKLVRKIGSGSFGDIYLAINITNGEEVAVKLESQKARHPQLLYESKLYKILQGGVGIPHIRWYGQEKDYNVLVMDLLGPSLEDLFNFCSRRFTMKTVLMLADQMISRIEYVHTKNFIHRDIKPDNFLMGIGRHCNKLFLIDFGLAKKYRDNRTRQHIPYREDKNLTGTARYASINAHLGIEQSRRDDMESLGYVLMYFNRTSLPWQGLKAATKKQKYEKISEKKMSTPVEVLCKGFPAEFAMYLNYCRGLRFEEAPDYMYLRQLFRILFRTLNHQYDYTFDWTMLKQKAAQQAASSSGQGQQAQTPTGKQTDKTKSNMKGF
Method: CSNK1A1-inhibitory activity of compounds of the present invention in presence of 1 mM adenosine-tri-phosphate (ATP) was quantified employing the CSNK1A1-high-ATP-assay as described in the following paragraphs. In essence, the enzyme activity is measured by quantification of the adenosine-di-phosphate (ADP), which is generated as a co-product of the enzyme reaction, via the “ADP-Glo™ Kinase Assay” kit from the company Promega. This detection system works as follows: In a first step the ATP not consumed in the kinase reaction is quantitatively converted to CAMP employing an adenylate cyclase (“ADP-Glo-reagent”), then the adenylate cyclase is stopped and the ADP generated in the kinase reaction converted to ATP which generates in a luciferase-based reaction a glow-luminescence signal (“Kinase Detection Reagent”).
Recombinant fusion protein of N-terminal Glutathion-S-Transferase (GST) and full-length human CSNK1A1, expressed by baculovirus infected insect cells and purified via Glutathion affinity chromatography, was purchased from Life Technologies (product no. PV4174) and used as enzyme. As substrate for the kinase reaction the biotinylated peptide biotin-Ahx-KRRRAL-pS-VASLPGL (C-terminus in amide form) was used which can be purchased e.g. from the company Biosyntan (Berlin-Buch, Germany).
For the assay 50 nl of a 100 fold concentrated solution of the test compound in DMSO was pipetted into a white low volume 384-well microtiter plate (Greiner Bio-One, Frickenhausen, Germany), 2 μL of a solution of CSNK1A1 in aqueous assay buffer [50 mM HEPES pH 7.5, 10% (v/v) glycerol, 10 mM MgCl2, 50 mM NaCl, 1 mM dithiothreitol, 0.01% (w/v) bovine serum albumin, 0.01% (v/v) Triton X-100] were added and the mixture was incubated for 15 min at 22° C. to allow pre-binding of the test compounds to the enzyme before the start of the kinase reaction. Then the kinase reaction was started by the addition of 3 μL of a solution of ATP (1.67 mM=>final conc. in the 5 μL assay volume is 1 mM) and peptide substrate (167 μM=>final conc. in the 5 μL assay volume is 100 μM) in assay buffer and the resulting mixture was incubated for a reaction time of 30 min at 22° C. The concentration of CSNK1A1 was adjusted depending of the activity of the enzyme lot and was chosen appropriate to have the assay in the linear range, a typical concentration is about 0.4 ng/μL. The reaction was stopped by the addition of 2.5 μL of “ADP-Glo-reagent” (1:1.5 fold diluted with water) and the resulting mixture was incubated at 22° C. for 1 h to convert the ATP not consumed in the kinase reaction completely to CAMP. Subsequently 2.5 μL of the “kinase detection reagent” (1.2 fold more concentrated than recommended by the producer) were added, the resulting mixture was incubated at 22° C. for 1 h and then the luminescence measured with a suitable measurement instrument (e.g. Viewlux™ from Perkin-Elmer). The amount of emitted light was taken as a measure for the amount of ADP generated and thereby for the activity of the CSNK1A1.
The data were normalised (enzyme reaction without inhibitor=0% inhibition, all other assay components but no enzyme=100% inhibition).

[2] = read-out: Thermodynamic Solubility [mg/l] (mean)
[3] = read-out: Thermodynamic Solubility [μmol/L] (mean)

SMILES	solubility thermodynamic at 24 h [1, 2]	solubility thermodynamic at 24 h [1, 3]	IC50 (HT-29 cells)	IC50 (HCT 116 cells)	IC50 (human CSNK1A1)
CC(C)n1ccc(CC(=O)Nc2cc(-c3[nH]c4cccnc4c3-c3ccccn3)ccn2)n1 [Example 28, 2-(1-isopropylpyrazol-3-yl)-N-[4-[3-(2-pyridyl)-^1H-pyrrolo[3,2-b]pyridin-2-yl]-2-pyridyl]acetamide]	< 0.1 mg/L	< 0.23 µmol/L	314 nM	586 nM	–
O=C(Cc1cc2ccccn2n1)Nc1cc(-c2[nH]c3cccnc3c2-c2ccccn2)ccn1 [Example 15, 2-pyrazolo[1,5-a]pyridin-2-yl-N-[4-[3-(2-pyridyl)-^1H-pyrrolo[3,2-b]pyridin-2-yl]-2-pyridyl]acetamide]	0.8 mg/L	1.8 µmol/L	149 nM	171 nM	24.2 nM
Cn1nc(CC(=O)Nc2cc(-c3[nH]c4cccnc4c3-c3ccccn3)ccn2)cc1C(F)(F)F [Example 21, 2-[1-methyl-5-(trifluoromethyl)pyrazol-3-yl]-N-[4-[3-(2-pyridyl)-^1H-pyrrolo[3,2-b]pyridin-2-yl]-2-pyridyl]acetamide]	< 0.1 mg/L	< 0.21 µmol/L	222 nM	362 nM	86.6 nM
Cn1cc(CC(=O)Nc2cc(-c3[nH]c4cccnc4c3-c3ccccn3)ccn2)cn1 [Example 2, 2-(1-methylpyrazol-4-yl)-N-[4-[3-(2-pyridyl)-^1H-pyrrolo[3,2-b]pyridin-2-yl]-2-pyridyl]acetamide]	85.2 mg/L	208 µmol/L	2670 nM	3600 nM	31.6 nM
O=C(Cc1ccno1)Nc1cc(-c2[nH]c3cccnc3c2-c2ccccn2)ccn1 [Example 23, 2-isoxazol-5-yl-N-[4-[3-(2-pyridyl)-^1H-pyrrolo[3,2-b]pyridin-2-yl]-2-pyridyl]acetamide]	59.5 mg/L	150 µmol/L	768 nM	553 nM	50.1 nM
O=C(Cc1ccon1)Nc1cc(-c2[nH]c3cccnc3c2-c2ccccn2)ccn1 [Example 10, 2-isoxazol-3-yl-N-[4-[3-(2-pyridyl)-^1H-pyrrolo[3,2-b]pyridin-2-yl]-2-pyridyl]acetamide]	15.4 mg/L	38.9 µmol/L	797 nM	848 nM	–
O=C(Cc1cnc2ccccc2n1)Nc1cc(-c2[nH]c3cccnc3c2-c2ccccn2)ccn1 [Example 6, N-[4-[3-(2-pyridyl)-^1H-pyrrolo[3,2-b]pyridin-2-yl]-2-pyridyl]-2-quinoxalin-2-yl-acetamide]	–	–	125 nM	91.1 nM	6.06 nM
O=C(Cc1cnco1)Nc1cc(-c2[nH]c3cccnc3c2-c2ccccn2)ccn1 [Example 4]	25.2 mg/L	63.7 µmol/L	588 nM	535 nM	–

The next lines start with the values.

solubility thermodynamic at 24 h [1, 2]	solubility thermodynamic at 24 h [1, 3]	IC50 (HT-29 cells)	IC50 (HCT 116 cells)	IC50 (human CSNK1A1)	SMILES
5.4 mg/L	12.3 µmol/L	220 nM	179 nM	14.1 nM	Cc1nc(C)c(CC(=O)Nc2cc(-c3[nH]c4cccnc4c3-c3ccccn3)ccn2)s1 [Example 18, 2-(2,4-dimethylthiazol-5-yl)-N-[4-[3-(2-pyridyl)-^1H-pyrrolo[3,2-b]pyridin-2-yl]-2-pyridyl]acetamide]
1.3 mg/L	3.07 µmol/L	860 nM	817 nM	–	Cc1nn(C)cc1CC(=O)Nc1cc(-c2[nH]c3cccnc3c2-c2ccccn2)ccn1 [Example 9, 2-(1,3-dimethylpyrazol-4-yl)-N-[4-[3-(2-pyridyl)-^1H-pyrrolo[3,2-b]pyridin-2-yl]-2-pyridyl]acetamide]
5.8 mg/L	14.1 µmol/L	1650 nM	1140 nM	–	Cc1nocc1CC(=O)Nc1cc(-c2[nH]c3cccnc3c2-c2ccccn2)ccn1 [Example 30, 2-(3-methylisoxazol-4-yl)-N-[4-[3-(2-pyridyl)-^1H-pyrrolo[3,2-b]pyridin-2-yl]-2-pyridyl]acetamide]
2.5 mg/L	5.9 µmol/L	627 nM	706 nM	70.8 nM	Cc1cc(CC(=O)Nc2cc(-c3[nH]c4cccnc4c3-c3ccccn3)ccn2)nn1C [Example 16, 2-(1,5-dimethylpyrazol-3-yl)-N-[4-[3-(2-pyridyl)-^1H-pyrrolo[3,2-b]pyridin-2-yl]-2-pyridyl]acetamide]
8.4 mg/L	20.5 µmol/L	1410 nM	964 nM	–	Cc1ocnc1CC(=O)Nc1cc(-c2[nH]c3cccnc3c2-c2ccccn2)ccn1 [Example 11, 2-(5-methyloxazol-4-yl)-N-[4-[3-(2-pyridyl)-^1H-pyrrolo[3,2-b]pyridin-2-yl]-2-pyridyl]acetamide]
26.3 mg/L	64.1 µmol/L	481 nM	418 nM	–	Cc1ncc(CC(=O)Nc2cc(-c3[nH]c4cccnc4c3-c3ccccn3)ccn2)o1 [Example 24, 2-(2-methyloxazol-5-yl)-N-[4-[3-(2-pyridyl)-^1H-pyrrolo[3,2-b]pyridin-2-yl]-2-pyridyl]acetamide]
23.1 mg/L	56.3 µmol/L	630 nM	985 nM	–	Cc1nc(CC(=O)Nc2cc(-c3[nH]c4cccnc4c3-c3ccccn3)ccn2)co1 [Example 25, 2-(2-methyloxazol-4-yl)-N-[4-[3-(2-pyridyl)-^1H-pyrrolo[3,2-b]pyridin-2-yl]-2-pyridyl]acetamide]
